From US6869973B2, “Nitrosated and nitrosylated taxanes, compositions and methods of use” (NitroMed, Inc., priority 2000, dated 2005) come the findings set out here.

Read-outs that look alike come from different tables or passages of the source.

One experiment has as its system rabbit platelets. Briefly: Rabbit platelet aggregation assay (ADP-induced, platelet-rich plasma). Type of experiment: cell-based, New Zealand White rabbits. The following applies: rabbit PRP, 2 min pre-incubation, FIG. 2; for effect on platelet aggregation (qualitative): concentrations higher than 1 μM. The method, then:
Blood was collected from New Zealand White rabbits into a sodium citrate solution. Platelet-rich plasma (PRP) and platelet-poor plasma (PPP) were obtained by centrifugation of the citrated blood. Aggregation of the platelets, which was induced by addition of adenosine diphosphate (ADP), was measured in a Chrono-Log Aggregometer (Havertown, Pa.). Stock solutions of the test compounds were prepared in ethanol at concentrations 1000-fold higher than the final concentrations. The test compounds at these different concentrations were pre-incubated with the PRP for 2 min with stirring prior to the addition of ADP. Inhibition of aggregation was quantified as follows: % Inhibition=100% (1−(Max. Ampl. Agg. in Test Compound/Max. Ampl. Agg. Control)) • “Max. Ampl. Agg. In Test Compound” was the measured maximum amplitude of the platelets in the PRP in the presence of and after pre-incubation with the test compound. • “Max. Ampl. Agg. Control” was the measured maximum amplitude of the platelets in the PRP without test compound addition.
Nitric oxide inhibits the aggregation of platelets whether added as the gas or in the form of a NO donor.

The subject of experiment [1] is human coronary artery smooth muscle cells (CASMC). Briefly: Vascular smooth muscle cell (SMC) antiproliferation assay. The format is cell-based. The method, then: The cells used in this assay were human coronary artery smooth muscle cells (CASMC) supplied by Clonetics Corp. (San Diego, Calif.). They were maintained in SmGM-2 growth medium (Clonetics Corp.), which consisted of modified MCDB 131 medium supplemented with 5% (v/v) fetal bovine serum (FBS), 0.5 ng/mL human recombinant epidermal growth factor (EGF), 2 ng/mL human recombinant fibroblast growth factor (FGF), 5 μg/mL bovine insulin, 50 μg/mL gentamicin sulfate, and 50 ng/mL amphotericin B under humidified 95% air-5% CO2 at 37° C.
For the SMC antiproliferation assay, the cells were seeded at 3×10^4 viable cells in 2 mL of SmGM-2 medium per well of a Corning 24 well plate (Corning, N.Y.). Stock solutions of the test compounds were prepared just prior to addition to the cells by dissolving in ethanol at a concentration of 40 mM. This stock solution was diluted, as required, with ethanol to lower concentrations. […] Control cultures received 2 μL of ethanol per well (n=4). On the following morning, the cultures were examined microscopically and their condition recorded. On the third day after test compound addition (˜68 hr), the cultures were examined microscopically again and the viable cells counted with an hemacytometer following trypsinization with 0.25% trypsin-1 mM EDTA. Trypan Blue dye exclusion was used to discriminate between viable and dead cells.
(§1) The SMC antiproliferation assay was performed as described in Example 5.
as §1

The mark [2] stands for this setting: CASMC, viable cell count ~68 hr after compound addition, FIG. 1 / FIG. 3.
Setting [3] is: CASMC, qualitative ranking against comparator named in the sentence.

Regarding `CC(=O)O[C@H]1C(=O)[C@@]2(C)C([C@H](OC(=O)c3ccccc3)C3(O)C[C@H](OC(=O)[C@H](O)[C@@H](NC(=O)c4ccccc4)c4ccccc4)C(C)=C1C3(C)C)[C@]1(OC(C)=O)CO[C@@H]1C[C@@H]2OC(=O)CC(C)(C)SN=O` (stereo partly drawn) [Example 1, 15-((3S,2R)-2-hydroxy-3-phenyl-3-(phenylcarbonylamino)propanoyloxy) (2S,4S,9S,10S,15S,7R,12R)-4,12-diacetyloxy-1-hydroxy-10,14,17,17-tetramethyl-6-oxa-11-oxo-2-phenylcarbonyloxytetracyclo (11.3.1.0<3,10>0.0<4,7>)heptadec-13-en-9-yl 3-methyl-3-(nitrosothio) butanoate], the “effect on platelet aggregation (qualitative)” value (shortened to “effect on platelet aggregation”) in the experiment on rabbit platelets was “inhibited platelet aggregation, but required higher concentrations than SNO-Glu”. Also, the “concentration that totally suppressed cell proliferation of the seeded cells” value in experiment [1] (setting [2]) was found to be 0.1 µM. The “comparison of inhibition of proliferation of vascular smooth muscle cells” value in experiment [1] (setting [3]) is given as “superior to its non-nitrosylated derivative (Example 1d)”.

With `N[C@@H](CCC(=O)N[C@@H](CSN=O)C(=O)NCC(=O)O)C(=O)O` [S-Nitrosoglutathione, reference compound], the “final concentration that totally inhibited platelet aggregation” value with rabbit platelets amounted to 1 µM.

With “9-(2-({((2R)-2,3-bis(nitrooxy)propyl)oxycarbonyl}methoxy)acetyloxy)(1S,2S,4S,9S,10S,15S,7R,12R)-4,12-diacetyloxy-1-hydroxy-10,14,17,17-tetramethyl-6-oxa-11-oxo-2 phenylcarbonyloxytetracyclo (11.3.1.0<3,10>0.0<4,7>)heptadec-13-en-15-yl 2-(2-({((2R)-2,3-bis(nitrooxy)propyl)oxycarbonyl}methoxy)acetyloxy)(3S,2R)-3-phenyl-3-(phenylcarbonylamino)propanoate [Example 3]”, in experiment [1], the “comparison of inhibition of proliferation of vascular smooth muscle cells” value is recorded as “superior to paclitaxel” and the “concentration that totally suppressed cell proliferation of the seeded cells” value is 1 µM.

`CC(=O)O[C@H]1C(=O)[C@@]2(C)C([C@H](OC(=O)c3ccccc3)[C@]3(O)C[C@H](OC(=O)[C@H](O)[C@@H](NC(=O)c4ccccc4)c4ccccc4)C(C)=C1C3(C)C)[C@]1(OC(C)=O)CO[C@@H]1C[C@@H]2OC(=O)CC(C)(C)S` (stereo partly drawn) [Example 1d, 15-((3S,2R)-2-hydroxy-3-phenyl-3-(phenylcarbonylamino)propanoyloxy) (2S,4S,9S,10S,15S,7R,12R)-4,12-diacetyloxy-1-hydroxy-10,14,17,17-tetramethyl-6-oxa-11-oxo-2-phenylcarbonyloxytetracyclo(11.3.1.0<3,10>0.0<4,7>)heptadec-13-en-9-yl 3-methyl-3-sulfanylbutanoate]: the “effect on platelet aggregation” value in the experiment on rabbit platelets was “did not prevent platelet aggregation”. In addition, the “concentration that totally suppressed cell proliferation of the seeded cells” value in experiment [1] (setting [2]) was determined as 0.1 µM.

As to `CC(=O)O[C@H]1C(=O)[C@@]2(C)[C@H]([C@H](OC(=O)c3ccccc3)[C@]3(O)C[C@H](OC(=O)[C@H](O)[C@@H](NC(=O)c4ccccc4)c4ccccc4)C(C)=C1C3(C)C)[C@]1(OC(C)=O)CO[C@@H]1C[C@@H]2O` [Paclitaxel, reference compound], the “effect on platelet aggregation” value with rabbit platelets is given as “did not prevent platelet aggregation”. Further, the “concentration that totally suppressed cell proliferation of the seeded cells” value in experiment [1] (setting [2]) worked out at 0.01 µM.

Consider `CC(=O)OC1C(=O)C2(C)C(OC(=O)COCC(=O)OCC(CO[N+](=O)[O-])(CO[N+](=O)[O-])CO[N+](=O)[O-])CC3OCC3(OC(C)=O)C2C(OC(=O)c2ccccc2)C2(O)CC(OC(=O)C(OC(=O)COCC(=O)OCC(CO[N+](=O)[O-])(CO[N+](=O)[O-])CO[N+](=O)[O-])C(NC(=O)c3ccccc3)c3ccccc3)C(C)=C1C2(C)C` [Example 4, (1S,2S,4S,9S,10S,15S,7R,12R)-4,12-diacetyloxy-9-{2-(({2,2-bis((nitrooxy)methyl)-3-(nitrooxy)propyl}oxycarbonyl)methoxy)acetyloxy}-1-hydroxy-10,14,17,17-tetramethyl-6-oxa-11-oxo-2-phenylcarbonyloxytetracyclo (11.3.1.0<3,10>0.0<4,7>)heptadec-13-en-15-yl(3S,2R)-2-{2-(({2,2-bis ((nitrooxy)methyl)-3-(nitrooxy)propyl}oxycarbonyl)methoxy)acetyloxy}-3-phenyl-3-(phenylcarbonylamino)propanoate], for which the “concentration that totally suppressed cell proliferation of the seeded cells” value in experiment [1] (setting [2]) was found to be 1 µM. Besides, in experiment [1] (setting [3]), the “comparison of inhibition of proliferation of vascular smooth muscle cells” value is on record as “superior to paclitaxel”.
